Values quoted from earlier work in paper PMC3853718 (Journal of Translational Medicine, 2013).
Like-named read-outs stand apart in the source and are kept apart here.

What was measured:
solid tumor patients = conditions: cited from earlier work
healthy volunteers = test system: healthy volunteers; design: method as in PMID 17115157; conditions: single dose of 160 mg; cited from earlier work
patients = conditions: cited from earlier work; for toxicity: 1-hour infusion on days 1, 8, 15 in a 4-week cycle
mouse xenograft model = conditions: cited from earlier work
nude mice = conditions: once-daily administration for 7 days in nude mice; cited from earlier work

Q: With `O=C(NC1CCNCC1)c1[nH]ncc1NC(=O)c1c(Cl)cccc1Cl` [AT7519] as the molecule, how does the objective responses (solid tumor patients; patient with metastatic NSCLC) read?
A: one PR

Q: What does the source list for `Cc1ncc(-c2ccnc(Nc3ccc(S(C)(=O)=O)cc3)n2)n1C(C)C` [AZD5438]?
A: objective responses (solid tumor patients; 3 phase 1 trials): No responses; DLT (healthy volunteers): nausea and vomiting; tolerability (patients; 40 mg four times a day, continuous daily dosing schedules, advanced solid tumors): not tolerated

Q: For `CC(=O)c1c(C)c2cnc(Nc3ccc(N4CCNCC4)cn3)nc2n(C2CCCC2)c1=O` [PD0332991], which objective responses (solid tumor patients; patient with testicular cancer among 33 patients) is on record?
A: one PR

Q: What about the DLTs (patients) of the same molecule?
A: neutropenia

Q: What does the source list for `CC(C)CC(=O)Nc1[nH]nc2c1CN(C(=O)C1CCN(C)CC1)C2(C)C` [PHA793887]?
A: objective responses (solid tumor patients; first-in-human study in solid tumor patients): did not show any objective responses; toxicity (patients; dose level of 66 mg/m^2, one patient): grade 4 hepatic failure; toxicity (patients; third dose level of 44 mg/m^2, one patient): fatal hepatorenal failure

Q: For `CN1CC[C@H](c2c(O)cc(O)c3c(=O)cc(-c4ccccc4Cl)oc23)[C@H](O)C1` [flavopiridol], which “minimum effective dose, defined as >50% tumor growth inhibition” value (mouse xenograft model) is on record?
A: 10 mg/kg

Q: What about the objective responses (solid tumor patients; 55 patients, 1-hour daily infusion for 5 days, 3 days, or 1 day in a 21-day cycle) of the same molecule?
A: No objective responses

Q: And the objective responses (solid tumor patients; 72-hour continuous infusion every 2 weeks, study of 76 patients, patient with renal cancer)?
A: one PR

Q: What about the objective responses (solid tumor patients; 72-hour continuous infusion every 2 weeks, trial of 38 patients, patient with gastric cancer) of the same molecule?
A: one CR

Q: And the “maximum tolerated dose, defined as the dose associated with 20% weight loss” value (nude mice)?
A: < 10 mg/kg

Q: What about the dose-limiting toxicity (patients; 72-hour continuous infusion trials) of the same molecule?
A: dose-limiting diarrhea

Q: What about the dose-limiting toxicity (patients; daily 1-hour infusion schedule) of the same molecule?
A: dose-limiting neutropenia

Q: Which results are given for `CC[C@H](CO)Nc1nc(NCc2ccccc2)c2ncn(C(C)C)c2n1` [seliciclib]?
A: objective responses (solid tumor patients; patient with hepatocellular carcinoma among 56 patients): one PR; objective responses (solid tumor patients; separate trial): No responses; Dose-limiting toxicities (patients; orally twice daily for 7 days of a 21-day schedule): hypokalemia, hyponatremia, elevated gamma-glutamyl transferase, hyperglycemia, and vasculitic rash
